Calls of active or inactive are those of the source.
Legend:
[1] = target: Dual specificity protein phosphatase 3 (Homo sapiens, UniProt P51452); assay: VHR1 inhibitor Ki determination, SAR follow-up, biochemical, colorimetric (AID 2004)
[2] = target: Alkaline phosphatase, placental type (Homo sapiens, UniProt P05187); assay: PLAP enzyme inhibitors, confirmation, biochemical, luminescence (AID 1512); assay type: functional
[3] = target: Glyceraldehyde-3-phosphate dehydrogenase (Homo sapiens, UniProt P04406)
Sequence of Glyceraldehyde-3-phosphate dehydrogenase (P04406 whole entry): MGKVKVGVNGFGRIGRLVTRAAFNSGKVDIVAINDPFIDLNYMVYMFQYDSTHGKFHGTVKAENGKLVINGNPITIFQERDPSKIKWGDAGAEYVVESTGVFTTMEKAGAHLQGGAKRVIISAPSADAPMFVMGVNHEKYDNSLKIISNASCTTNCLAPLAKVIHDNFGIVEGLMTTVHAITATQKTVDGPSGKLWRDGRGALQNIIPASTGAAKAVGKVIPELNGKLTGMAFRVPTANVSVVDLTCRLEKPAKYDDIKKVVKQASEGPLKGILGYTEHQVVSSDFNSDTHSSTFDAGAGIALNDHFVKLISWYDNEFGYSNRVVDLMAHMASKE

[4] = target: T1, Alkaline phosphatase, tissue-nonspecific isozyme (Homo sapiens, UniProt P05186); assay: human TNAP enzyme inhibitors, SAR follow-up, biochemical, luminescent, dose response (AID 1056)
T1 sequence (P05186 whole entry): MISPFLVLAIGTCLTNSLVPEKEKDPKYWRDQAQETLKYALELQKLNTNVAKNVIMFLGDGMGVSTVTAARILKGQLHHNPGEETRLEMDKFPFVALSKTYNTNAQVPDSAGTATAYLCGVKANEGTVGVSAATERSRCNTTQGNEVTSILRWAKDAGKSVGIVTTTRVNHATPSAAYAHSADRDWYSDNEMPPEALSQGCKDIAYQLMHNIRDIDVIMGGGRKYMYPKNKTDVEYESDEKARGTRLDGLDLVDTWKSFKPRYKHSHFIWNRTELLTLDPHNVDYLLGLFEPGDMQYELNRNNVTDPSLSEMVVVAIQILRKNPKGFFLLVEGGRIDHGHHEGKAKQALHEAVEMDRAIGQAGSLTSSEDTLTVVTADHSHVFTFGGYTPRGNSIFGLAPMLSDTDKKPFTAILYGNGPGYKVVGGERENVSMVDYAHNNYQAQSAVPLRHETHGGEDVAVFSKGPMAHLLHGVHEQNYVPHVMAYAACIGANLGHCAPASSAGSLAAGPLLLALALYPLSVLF

[5] = target: DNA dC->dU-editing enzyme APOBEC-3A (Homo sapiens, UniProt P31941); assay: APOBEC3A DNA deaminase inhibitors, dose response, biochemical (AID 504722); assay type: functional
Sequence of DNA dC->dU-editing enzyme APOBEC-3A (P31941 whole entry): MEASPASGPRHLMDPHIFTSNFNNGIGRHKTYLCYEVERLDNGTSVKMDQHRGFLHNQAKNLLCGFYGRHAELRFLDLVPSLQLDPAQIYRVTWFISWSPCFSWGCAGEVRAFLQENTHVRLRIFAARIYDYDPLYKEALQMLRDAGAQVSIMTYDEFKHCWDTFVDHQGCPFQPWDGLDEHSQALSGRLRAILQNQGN

[6] = target: DNA dC->dU-editing enzyme APOBEC-3G (Homo sapiens, UniProt Q9HC16); assay: Dose Response confirmation of small molecule APOBEC3G DNA Deaminase Inhibitors via a fluorescence-based single-stranded DNA deaminase assay. [Related pubchem assays (depositor defined):AID493012, AID493028]; assay type: functional
Sequence of DNA dC->dU-editing enzyme APOBEC-3G (Q9HC16 whole entry): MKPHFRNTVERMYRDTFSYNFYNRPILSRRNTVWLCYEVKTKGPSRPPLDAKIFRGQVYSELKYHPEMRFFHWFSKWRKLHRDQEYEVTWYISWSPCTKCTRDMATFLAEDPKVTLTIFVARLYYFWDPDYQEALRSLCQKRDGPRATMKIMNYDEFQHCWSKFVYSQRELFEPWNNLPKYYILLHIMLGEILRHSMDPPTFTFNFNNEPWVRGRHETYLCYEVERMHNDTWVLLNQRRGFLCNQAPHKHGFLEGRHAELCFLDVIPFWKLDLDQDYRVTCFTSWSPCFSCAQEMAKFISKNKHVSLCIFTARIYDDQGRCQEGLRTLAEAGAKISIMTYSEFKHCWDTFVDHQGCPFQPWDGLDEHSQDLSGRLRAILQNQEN

[7] = target: T2, Replicative DNA helicase DnaB (Mycobacterium tuberculosis, UniProt P9WMR3); assay: DnaB intein splicing inhibitors, dose response, biochemical, cell-free fluorescence (AID 449749); assay type: functional
T2 sequence (P9WMR3 whole entry): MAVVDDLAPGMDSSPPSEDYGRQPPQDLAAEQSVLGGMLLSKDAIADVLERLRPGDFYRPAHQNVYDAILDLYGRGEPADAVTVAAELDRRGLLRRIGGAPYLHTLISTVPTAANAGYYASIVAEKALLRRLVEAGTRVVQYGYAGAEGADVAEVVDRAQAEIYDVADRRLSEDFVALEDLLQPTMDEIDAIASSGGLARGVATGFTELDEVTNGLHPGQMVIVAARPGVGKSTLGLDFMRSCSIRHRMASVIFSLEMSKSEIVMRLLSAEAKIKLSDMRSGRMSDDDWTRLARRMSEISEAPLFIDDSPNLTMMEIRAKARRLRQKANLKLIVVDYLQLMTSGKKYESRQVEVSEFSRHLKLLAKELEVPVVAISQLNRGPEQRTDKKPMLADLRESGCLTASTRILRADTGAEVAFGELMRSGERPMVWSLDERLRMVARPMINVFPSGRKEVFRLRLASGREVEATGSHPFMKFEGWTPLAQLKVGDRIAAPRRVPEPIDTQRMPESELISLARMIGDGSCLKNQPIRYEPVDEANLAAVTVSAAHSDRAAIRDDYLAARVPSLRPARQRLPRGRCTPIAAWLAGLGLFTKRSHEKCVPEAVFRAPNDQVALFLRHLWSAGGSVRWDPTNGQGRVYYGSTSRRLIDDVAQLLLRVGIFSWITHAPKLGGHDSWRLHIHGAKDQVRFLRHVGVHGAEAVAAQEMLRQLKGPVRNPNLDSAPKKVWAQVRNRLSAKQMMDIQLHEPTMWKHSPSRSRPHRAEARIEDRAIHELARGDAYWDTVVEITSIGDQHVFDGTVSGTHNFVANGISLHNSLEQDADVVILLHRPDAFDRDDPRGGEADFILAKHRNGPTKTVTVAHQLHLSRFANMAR

[8] = target: T3, Hexokinase HKDC1 (Homo sapiens, UniProt Q2TB90); assay: HKDC1 hexokinase inhibitors, dose response, biochemical, W721R variant (AID 504729); assay type: functional
T3 sequence (Q2TB90 whole entry): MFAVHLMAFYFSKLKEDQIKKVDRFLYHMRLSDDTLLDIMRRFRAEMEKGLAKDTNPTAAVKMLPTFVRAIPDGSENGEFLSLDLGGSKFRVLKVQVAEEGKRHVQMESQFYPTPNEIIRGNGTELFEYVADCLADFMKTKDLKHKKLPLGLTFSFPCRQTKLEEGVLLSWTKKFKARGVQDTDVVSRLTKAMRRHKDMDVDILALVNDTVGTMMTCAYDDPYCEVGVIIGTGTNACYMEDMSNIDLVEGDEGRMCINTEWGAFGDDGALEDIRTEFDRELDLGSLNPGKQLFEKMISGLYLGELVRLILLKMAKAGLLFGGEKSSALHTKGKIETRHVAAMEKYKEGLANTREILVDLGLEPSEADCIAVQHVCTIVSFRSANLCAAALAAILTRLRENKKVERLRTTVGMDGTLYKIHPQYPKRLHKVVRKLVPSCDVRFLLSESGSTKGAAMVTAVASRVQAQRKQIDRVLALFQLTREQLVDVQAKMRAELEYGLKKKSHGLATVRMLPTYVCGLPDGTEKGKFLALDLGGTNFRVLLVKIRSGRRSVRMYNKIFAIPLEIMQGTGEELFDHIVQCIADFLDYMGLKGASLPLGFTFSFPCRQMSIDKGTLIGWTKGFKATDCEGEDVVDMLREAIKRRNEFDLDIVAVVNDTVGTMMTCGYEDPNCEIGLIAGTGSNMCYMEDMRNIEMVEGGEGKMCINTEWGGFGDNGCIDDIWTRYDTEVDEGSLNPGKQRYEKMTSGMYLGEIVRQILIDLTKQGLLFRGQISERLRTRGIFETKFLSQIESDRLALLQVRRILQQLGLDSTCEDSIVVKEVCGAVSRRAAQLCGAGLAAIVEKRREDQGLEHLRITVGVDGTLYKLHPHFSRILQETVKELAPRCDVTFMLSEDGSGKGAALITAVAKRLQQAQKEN

[9] = target: Genome polyprotein (dengue virus type 2, UniProt P29990); assay: Dengue-2 NS5 methyltransferase inhibitors, primary screen, biochemical, confirmation dose response (AID 588689); assay type: functional
[10] = target: Induced myeloid leukemia cell differentiation protein Mcl-1 (Homo sapiens, UniProt Q07820); assay type: functional
Sequence of Induced myeloid leukemia cell differentiation protein Mcl-1 (Q07820 whole entry): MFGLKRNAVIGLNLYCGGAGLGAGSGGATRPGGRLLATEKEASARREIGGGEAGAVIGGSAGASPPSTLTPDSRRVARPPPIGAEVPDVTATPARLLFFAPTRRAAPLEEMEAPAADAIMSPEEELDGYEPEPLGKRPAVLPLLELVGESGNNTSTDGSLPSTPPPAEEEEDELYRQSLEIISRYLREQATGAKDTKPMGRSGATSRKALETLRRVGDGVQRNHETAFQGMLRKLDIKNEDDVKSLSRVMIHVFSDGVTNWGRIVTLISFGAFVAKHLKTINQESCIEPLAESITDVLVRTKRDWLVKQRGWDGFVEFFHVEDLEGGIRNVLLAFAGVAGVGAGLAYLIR

[11] = target: Glucose-6-phosphate 1-dehydrogenase (Homo sapiens, UniProt P11413); assay: human G6PD enzyme inhibitors, dose response, selectivity assay for P. falciparum G6PD inhibitor project, biochemical, fluorescence (AID 504792); assay type: functional
Sequence of Glucose-6-phosphate 1-dehydrogenase (P11413 whole entry): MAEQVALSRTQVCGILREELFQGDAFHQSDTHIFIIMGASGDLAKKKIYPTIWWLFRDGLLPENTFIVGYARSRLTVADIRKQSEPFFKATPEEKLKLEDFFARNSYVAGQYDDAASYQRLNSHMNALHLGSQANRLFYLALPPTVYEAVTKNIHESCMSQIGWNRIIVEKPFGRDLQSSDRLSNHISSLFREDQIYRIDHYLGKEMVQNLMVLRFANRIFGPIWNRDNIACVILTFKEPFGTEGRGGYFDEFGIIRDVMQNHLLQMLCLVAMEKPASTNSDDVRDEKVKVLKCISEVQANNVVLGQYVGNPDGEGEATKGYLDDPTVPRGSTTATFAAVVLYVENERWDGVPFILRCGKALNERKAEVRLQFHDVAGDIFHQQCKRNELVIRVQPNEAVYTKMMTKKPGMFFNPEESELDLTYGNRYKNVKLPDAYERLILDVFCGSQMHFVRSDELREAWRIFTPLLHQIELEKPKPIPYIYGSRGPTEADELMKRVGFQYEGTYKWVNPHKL

[12] = target: T4, Protein RecA (Mycobacterium tuberculosis, UniProt P9WHJ3); assay: Fluorescence Cell-Free Homogeneous Dose Retest to Identify Inhibitors of RecA-Intein Splicing Activity. [Related pubchem assays (depositor defined):AID2097, AID2223, AID489010, AID492950]; assay type: functional
T4 sequence (P9WHJ3 whole entry): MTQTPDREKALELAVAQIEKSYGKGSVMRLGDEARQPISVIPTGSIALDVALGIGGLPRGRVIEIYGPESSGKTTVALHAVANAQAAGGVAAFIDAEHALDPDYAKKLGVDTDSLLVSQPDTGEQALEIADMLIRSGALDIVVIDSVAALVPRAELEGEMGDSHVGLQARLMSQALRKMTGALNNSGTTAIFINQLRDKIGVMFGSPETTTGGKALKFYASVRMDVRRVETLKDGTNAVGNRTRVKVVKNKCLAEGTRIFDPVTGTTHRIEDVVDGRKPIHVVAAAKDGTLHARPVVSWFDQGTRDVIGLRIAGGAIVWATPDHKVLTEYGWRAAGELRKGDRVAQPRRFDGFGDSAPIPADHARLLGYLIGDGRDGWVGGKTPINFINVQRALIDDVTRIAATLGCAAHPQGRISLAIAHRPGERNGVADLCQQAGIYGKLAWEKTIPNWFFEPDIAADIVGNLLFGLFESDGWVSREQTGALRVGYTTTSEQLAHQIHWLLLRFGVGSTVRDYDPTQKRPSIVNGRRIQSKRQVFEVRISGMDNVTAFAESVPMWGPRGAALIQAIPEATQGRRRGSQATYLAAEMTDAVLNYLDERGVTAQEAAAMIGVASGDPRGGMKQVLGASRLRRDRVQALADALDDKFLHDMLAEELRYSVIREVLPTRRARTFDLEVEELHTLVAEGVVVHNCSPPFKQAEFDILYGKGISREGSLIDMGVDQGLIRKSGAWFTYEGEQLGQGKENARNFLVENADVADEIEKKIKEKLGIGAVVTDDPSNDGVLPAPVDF

[13] = target: Neurotensin receptor type 1 (Homo sapiens, UniProt P30989); assay type: functional;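 also: Image-based confirmatory dose-response assay measuring agonist activity at NTR1; NTR1-expressing U2OS osteosarcoma cells imaged for beta-arrestin GFP spot formation; agonist potency where compounds increase beta-arrestin recruitment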
Sequence of Neurotensin receptor type 1 (P30989 whole entry): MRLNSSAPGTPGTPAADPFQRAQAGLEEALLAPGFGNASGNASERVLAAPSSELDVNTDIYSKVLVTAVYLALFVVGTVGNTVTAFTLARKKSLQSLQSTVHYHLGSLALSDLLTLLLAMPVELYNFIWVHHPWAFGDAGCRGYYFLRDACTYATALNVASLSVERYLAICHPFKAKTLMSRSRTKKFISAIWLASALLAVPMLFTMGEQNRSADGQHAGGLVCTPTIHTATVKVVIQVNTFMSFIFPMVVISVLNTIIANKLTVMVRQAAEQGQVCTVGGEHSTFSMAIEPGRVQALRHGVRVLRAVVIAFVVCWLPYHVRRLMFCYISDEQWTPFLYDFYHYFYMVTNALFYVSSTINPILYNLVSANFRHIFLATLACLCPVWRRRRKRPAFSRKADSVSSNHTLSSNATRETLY

[14] = target: DNA damage-inducible transcript 3 protein (Mus musculus, UniProt P35639); assay type: functional, Cricetulus griseus
Sequence of DNA damage-inducible transcript 3 protein (P35639 whole entry): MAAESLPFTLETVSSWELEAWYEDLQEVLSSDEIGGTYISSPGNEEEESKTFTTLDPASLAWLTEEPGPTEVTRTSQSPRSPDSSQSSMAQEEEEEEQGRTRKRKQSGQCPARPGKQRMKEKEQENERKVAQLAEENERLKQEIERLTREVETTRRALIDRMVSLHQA

[15] = cytotoxicity in HEK-293T cells, dose response, cytotoxicity control for TCR NF-kB inhibitor project, luminescence, T-cell screen hits (AID 489026); assay type: functional, cell-based;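 also: cells exposed to compound about 14 hours before the viability readout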
[16] = target: E3 ubiquitin-protein ligase Mdm2 (Homo sapiens, UniProt Q00987); assay: enhancers of MDM2-luciferase reporter signal, concentration-effect titration, project on inhibitors of MDM2 ubiquitin ligase, cellular assay, luminescent readout, 384-well plate format (AID 1394); assay type: functional;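 also: MDM2 E3 inhibitors raise luminescence so EC50 is for signal enhancement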
Sequence of E3 ubiquitin-protein ligase Mdm2 (Q00987 whole entry): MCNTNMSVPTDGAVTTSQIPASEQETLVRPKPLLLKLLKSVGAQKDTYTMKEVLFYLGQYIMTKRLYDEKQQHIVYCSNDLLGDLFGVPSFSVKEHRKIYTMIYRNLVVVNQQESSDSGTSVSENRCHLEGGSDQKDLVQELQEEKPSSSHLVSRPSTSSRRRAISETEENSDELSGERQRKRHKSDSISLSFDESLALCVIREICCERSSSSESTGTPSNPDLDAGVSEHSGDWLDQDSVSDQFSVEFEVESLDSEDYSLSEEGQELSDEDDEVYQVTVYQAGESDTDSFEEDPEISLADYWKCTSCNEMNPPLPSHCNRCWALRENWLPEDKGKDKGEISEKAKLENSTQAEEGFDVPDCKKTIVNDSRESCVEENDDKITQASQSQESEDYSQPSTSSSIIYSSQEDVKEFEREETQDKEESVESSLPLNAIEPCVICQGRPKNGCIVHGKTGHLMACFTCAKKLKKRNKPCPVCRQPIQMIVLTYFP

[17] = test system: INS1; assay: beta cell apoptosis inhibitors, cytokine rescue, dose response, luminescence, retest (AID 449756); assay type: functional, cell-based; details: Rattus norvegicus;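 also: cell death triggered by IL-1 beta plus TNF-alpha plus IFN-gamma mixture; protective hits raise ATP signal compared with cytokine alone wells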
[18] = target: Mitochondrial peptide methionine sulfoxide reductase (Bos taurus, UniProt P54149); assay: Absorbance-based biochemical high throughput dose response assay for activators of Methionine sulfoxide reductase A (MsrA).; assay type: functional
Sequence of Mitochondrial peptide methionine sulfoxide reductase (P54149 whole entry): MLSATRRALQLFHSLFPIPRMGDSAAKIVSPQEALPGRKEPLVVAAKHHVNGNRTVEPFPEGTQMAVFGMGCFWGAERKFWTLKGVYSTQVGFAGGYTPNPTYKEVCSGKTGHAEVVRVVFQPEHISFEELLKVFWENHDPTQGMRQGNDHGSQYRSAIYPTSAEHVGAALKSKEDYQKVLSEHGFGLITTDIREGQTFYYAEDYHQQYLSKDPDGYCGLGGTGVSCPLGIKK

[19] = target: T5, Phosphomannomutase 2 (Homo sapiens, UniProt O15305); assay: Counter screen SAR assay for PMM2 inhibitors via a fluorescence intensity assay. [Related pubchem assays (depositor defined):AID1545, AID1574]
T5 sequence (O15305 whole entry): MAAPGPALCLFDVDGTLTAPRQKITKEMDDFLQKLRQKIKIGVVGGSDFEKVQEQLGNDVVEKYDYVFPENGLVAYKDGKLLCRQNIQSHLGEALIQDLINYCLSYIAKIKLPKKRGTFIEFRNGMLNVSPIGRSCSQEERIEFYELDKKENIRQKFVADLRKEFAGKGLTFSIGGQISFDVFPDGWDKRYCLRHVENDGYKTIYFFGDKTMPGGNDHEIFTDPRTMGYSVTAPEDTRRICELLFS

[20] = target: T6, Mannose-6-phosphate isomerase (Homo sapiens, UniProt P34949); assay: PMI enzyme inhibitors, confirmation, biochemical, fluorescence intensity (AID 1535)
T6 sequence (P34949 whole entry): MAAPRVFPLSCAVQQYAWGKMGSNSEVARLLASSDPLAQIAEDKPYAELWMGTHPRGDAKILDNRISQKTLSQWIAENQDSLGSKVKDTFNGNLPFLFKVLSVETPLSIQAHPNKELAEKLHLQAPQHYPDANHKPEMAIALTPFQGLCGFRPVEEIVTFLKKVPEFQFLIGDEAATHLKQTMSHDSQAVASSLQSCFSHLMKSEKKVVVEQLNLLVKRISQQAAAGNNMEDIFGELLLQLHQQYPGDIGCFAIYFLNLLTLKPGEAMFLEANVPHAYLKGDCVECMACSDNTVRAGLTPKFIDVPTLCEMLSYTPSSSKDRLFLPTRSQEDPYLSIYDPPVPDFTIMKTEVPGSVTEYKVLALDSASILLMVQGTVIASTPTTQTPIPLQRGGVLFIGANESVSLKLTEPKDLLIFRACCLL

[21] = target: Large T antigen (Simian virus 40, UniProt P03070); assay type: functional, Betapolyomavirus macacae;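 also: Confirmatory-stage PubChem screen for compounds that inhibit SV40 T antigen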
Sequence of Large T antigen (P03070 whole entry): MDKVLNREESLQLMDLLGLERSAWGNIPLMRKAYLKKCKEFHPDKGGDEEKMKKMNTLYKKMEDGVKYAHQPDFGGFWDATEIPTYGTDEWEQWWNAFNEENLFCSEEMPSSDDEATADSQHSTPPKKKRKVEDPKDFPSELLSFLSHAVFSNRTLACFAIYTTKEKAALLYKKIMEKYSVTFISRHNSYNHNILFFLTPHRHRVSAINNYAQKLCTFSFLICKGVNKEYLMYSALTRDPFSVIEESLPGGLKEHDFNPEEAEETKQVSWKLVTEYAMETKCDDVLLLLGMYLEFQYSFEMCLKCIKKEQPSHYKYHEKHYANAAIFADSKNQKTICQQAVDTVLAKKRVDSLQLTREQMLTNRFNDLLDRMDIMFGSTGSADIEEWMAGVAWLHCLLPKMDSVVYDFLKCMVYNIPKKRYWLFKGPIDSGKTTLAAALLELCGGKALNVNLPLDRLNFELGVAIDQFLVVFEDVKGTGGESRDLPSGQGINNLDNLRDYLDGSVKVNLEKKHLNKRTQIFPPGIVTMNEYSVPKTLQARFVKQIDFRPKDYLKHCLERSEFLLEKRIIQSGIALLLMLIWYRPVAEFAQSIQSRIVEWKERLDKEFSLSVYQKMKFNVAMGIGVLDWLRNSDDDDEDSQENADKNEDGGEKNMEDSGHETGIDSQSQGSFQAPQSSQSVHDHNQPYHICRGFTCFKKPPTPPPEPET

Sequence of Alkaline phosphatase, placental type (P05187 whole entry): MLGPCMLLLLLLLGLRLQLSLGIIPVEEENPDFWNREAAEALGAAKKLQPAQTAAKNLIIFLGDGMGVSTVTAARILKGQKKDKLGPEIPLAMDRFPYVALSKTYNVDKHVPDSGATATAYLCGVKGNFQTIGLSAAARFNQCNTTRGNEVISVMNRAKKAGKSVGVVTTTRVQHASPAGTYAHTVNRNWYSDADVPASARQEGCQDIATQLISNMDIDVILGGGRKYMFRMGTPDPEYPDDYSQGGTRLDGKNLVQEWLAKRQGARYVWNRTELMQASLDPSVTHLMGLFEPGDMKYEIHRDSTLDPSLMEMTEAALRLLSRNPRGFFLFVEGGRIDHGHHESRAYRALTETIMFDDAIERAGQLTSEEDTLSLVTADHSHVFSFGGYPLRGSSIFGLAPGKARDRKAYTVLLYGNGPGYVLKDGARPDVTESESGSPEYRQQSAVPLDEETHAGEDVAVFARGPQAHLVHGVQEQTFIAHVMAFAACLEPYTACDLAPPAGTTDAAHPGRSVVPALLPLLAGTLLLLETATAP
Sequence of Dual specificity protein phosphatase 3 (P51452 whole entry): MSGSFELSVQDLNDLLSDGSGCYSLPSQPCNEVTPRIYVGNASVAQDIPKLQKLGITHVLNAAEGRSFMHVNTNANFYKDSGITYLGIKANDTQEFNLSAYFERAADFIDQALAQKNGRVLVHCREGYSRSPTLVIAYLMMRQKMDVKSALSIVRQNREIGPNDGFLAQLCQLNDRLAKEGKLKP

CC1(C)c2ssc(=S)c2-c2ccccc2N1C(=O)CN1CCOCC1
Ki [1]: 40.5 µM (inactive)

O=C(c1cc(-c2cc(F)c(Cl)cc2Cl)n[nH]1)N1CCCC1
IC50 [2]: > 100 µM (inactive) | IC50 [3]: > 100 µM (not active) | IC50 [4]: > 100 µM (inactive)

O=S(=O)(Nc1cnc2ccccc2c1)c1ccccc1OC(F)(F)F
IC50 [3]: > 100 µM (not active) | IC50 [4]: 16.4 µM (active)

Sc1nncn1/N=C/c1ccc(Br)cc1
IC50 [5]: > 100 µM (inactive) | IC50 [6]: 2.72 µM (active)

S=C(S)N(CCN(Cc1cccs1)C(=S)S)Cc1cccs1
Ki [1]: 36.3 µM (inactive)

Cc1nc(COC(=O)c2cc(O)c3ccccc3c2O)cs1
AC50 [7]: 24.7 µM (active) | IC50 [8]: 12.1 µM (active) | IC50 [9]: 43.1 µM (active) | IC50 [10]: 4.84 µM (active) | IC50 [11]: > 80 µM (inactive) | EC50 [12]: 5.24 µM (active)

COc1ccc(C(=O)NN=C(S)NC2CCCCC2)cc1OC
IC50 [2]: > 100 µM (inactive)

C[C@H](NC(=O)c1nc[nH]c1C(=O)Nc1cccc(Cl)c1)c1ccccc1
EC50 [13]: 24 µM (inactive)

Oc1ccc(/C=N/N2CCN(C3c4ccccc4-c4ccccc43)CC2)c(O)c1
Absolute IC50 (CHOP) [14]: 10 µM

C=C1C(=O)O[C@H]2C[C@@H](C)[C@@H]3C=CC(=O)[C@@]3(C)C[C@H]12 [AROMATICIN]
Absolute IC50 (CHOP) [14]: 10 µM | IC50 [15]: > 80 µM (inactive) | EC50 [16]: 590 nM (not active) | AC50 [17]: 7.82 µM (active)

COc1cc(-c2n[nH]c(=S)[nH]2)cc(OC)c1OC
EC50 [18]: > 104 µM (inactive) | IC50 [5]: > 100 µM (inactive) | IC50 [19]: > 100 µM (inactive) | IC50 [20]: 38.9 µM (active) | IC50 [6]: 3.13 µM (active) | IC50 [21]: 8.6 µM (active)
